Laboratory results reported in ChEMBL document CHEMBL4825771 (ACS Med Chem Lett, 2021).

Assays:
[1] = Metabolic stability in human liver microsomes assessed as intrinsic clearance measured after 60 mins by LC-MS/MS analysis; type: ADME, Microsome; settings: read-out: CLH
[2] = Metabolic stability in human liver microsomes assessed as half life measured after 60 mins by LC-MS/MS analysis; type: ADME, Microsome
[3] = target: 5-hydroxytryptamine receptor 2A (Homo sapiens, UniProt P28223); assay: Displacement of [3H]-ketanserin from human 5-HT2A receptor incubated for 90 mins by scintillation counting analysis
5-hydroxytryptamine receptor 2A, sequence (P28223 whole entry): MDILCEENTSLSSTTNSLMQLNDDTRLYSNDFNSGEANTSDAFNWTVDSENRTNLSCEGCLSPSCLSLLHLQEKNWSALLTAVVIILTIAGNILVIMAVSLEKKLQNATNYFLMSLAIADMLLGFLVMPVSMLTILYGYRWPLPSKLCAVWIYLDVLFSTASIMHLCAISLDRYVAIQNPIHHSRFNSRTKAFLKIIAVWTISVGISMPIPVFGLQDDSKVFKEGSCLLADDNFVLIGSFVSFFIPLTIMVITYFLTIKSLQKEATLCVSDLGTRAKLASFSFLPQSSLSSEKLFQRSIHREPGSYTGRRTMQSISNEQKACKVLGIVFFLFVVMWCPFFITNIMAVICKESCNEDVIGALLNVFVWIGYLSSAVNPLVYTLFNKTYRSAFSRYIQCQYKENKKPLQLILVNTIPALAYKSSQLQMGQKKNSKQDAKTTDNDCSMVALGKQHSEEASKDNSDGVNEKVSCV

**Q.** For `[2H]C([2H])([2H])N(C([2H])([2H])[2H])C([2H])([2H])C([2H])([2H])c1c[nH]c2cccc(OC(=O)CCCCCCCC/C=C\C/C=C\CCCCC)c12`, which microsomal CLint [1] is on record?
**A.** 10.4 µL/min/mg

**Q.** What about the half-life at 2 µM [2] of the same compound?
**A.** 2.23 h

**Q.** What about the EC50 [3] of the same compound?
**A.** 965 nM
